Reference: US4695545A, “Culture and process for producing A41030 antibiotics” (Eli Lilly and Company, priority 1984, dated 1987)
Converted amounts (≈) assume the structure as drawn.

Experiments:
S. pyogenes = assay: In vivo oral activity against S. pyogenes in mice
Clostridium perfringens = assay type: cell-based; conditions: Clostridium perfringens 81; agar-dilution
[1] = Electrometric titration (pKa); assay type: physicochemical; conditions: electrometric titration in 66% dimethylformamide in water; stated as possible
Source text: Antibiotic A41030 factor A is a white, crystalline solid.

Clostridium difficile [2] = assay: MIC anaerobic bacteria, agar-dilution; assay type: cell-based; conditions: Clostridium difficile 2994; agar-dilution (Table 9)
Clostridium septicum = assay: MIC anaerobic bacteria, agar-dilution; assay type: cell-based; conditions: Clostridium septicum 1128
Bacteroides vulgatis = assay: MIC anaerobic bacteria, agar-dilution; assay type: cell-based; conditions: Bacteroides vulgatis 1211
Propionibacterium acnes [3] = assay: MIC against Propionibacterium acnes strains, 24-hour agar-dilution; assay type: cell-based
Source text: Antibiotic A41030 factors A, B and C have been tested and found to be active against a genus of anaerobic bacteria identified as Propionibacterium acnes.

[4] = system: Staphylococcus epidermidis; assay: MIC aerobic bacteria, standard agar-dilution assay; assay type: cell-based; conditions: Staphylococcus epidermidis EPI2, 24 hours
Staphylococcus aureus = assay: MIC aerobic bacteria, standard agar-dilution assay; assay type: cell-based; conditions: Staphylococcus aureus S13E; agar-dilution, 24 hours
Bacteroides corrodens = assay: MIC anaerobic bacteria, agar-dilution; assay type: cell-based; conditions: Bacteroides corrodens 1874
[5] = system: Fusobacterium necrophorum; assay: MIC anaerobic bacteria, agar-dilution; assay type: cell-based; conditions: Fusobacterium necrophorum 6054A
[6] = system: Streptococcus sp. Group D; assay: MIC aerobic bacteria, standard agar-dilution assay; assay type: cell-based
[7] = system: Peptostreptococcus intermedius; assay: MIC anaerobic bacteria, agar-dilution; assay type: cell-based; conditions: Peptostreptococcus intermedius 1264
Peptococcus prevoti = assay: MIC anaerobic bacteria, agar-dilution; assay type: cell-based; conditions: Peptococcus prevoti 1281
Clostridium difficile [8] = assay: MIC against Clostridium difficile strains, agar-dilution; assay type: cell-based
Source text: The A41030 antibiotic factors A, B, C, D, E, F, and G, are also active against a number of strains of Clostridium difficile, as determined by the agardilution method.

Haemophilus influenzae = assay: MIC aerobic bacteria, standard agar-dilution assay; assay type: cell-based
Propionibacterium acnes [9] = assay: MIC anaerobic bacteria, agar-dilution; assay type: cell-based; conditions: Propionibacterium acnes 79; agar-dilution (Table 9)
[10] = system: Peptostreptococcus anaerobius; assay: MIC anaerobic bacteria, agar-dilution; assay type: cell-based; conditions: Peptostreptococcus anaerobius 1428
Fusobacterium symbiosum = assay: MIC anaerobic bacteria, agar-dilution; assay type: cell-based; conditions: Fusobacterium symbiosum 1470
Bacteroides fragilis = assay: MIC anaerobic bacteria, agar-dilution; assay type: cell-based
[11] = system: Bacteroides thetaiotaomicron; assay: MIC anaerobic bacteria, agar-dilution; assay type: cell-based; conditions: Bacteroides thetaiotaomicron 1438
Streptococcus pyogenes = assay: MIC aerobic bacteria, standard agar-dilution assay; assay type: cell-based; conditions: Streptococcus pyogenes C203, 24 hours
Streptococcus pneumoniae = assay: MIC aerobic bacteria, standard agar-dilution assay; assay type: cell-based; conditions: Streptococcus pneumoniae Park I, 24 hours
Solubility in solvents = assay type: physicochemical; conditions: qualitative
Source text: As many as seven antibiotic factors are recovered from the fermentation and are obtained as a mixture, the A41030 complex. It will be recognized that the ratio of the factors in the A41030 complex will vary, depending upon the fermentation conditions used. The individual factors A, B, C, D, E, F, and G are separated and isolated as individual compounds, as hereinafter described.

[12] = system: Bacteroides melaninogenicus; assay: MIC anaerobic bacteria, agar-dilution; assay type: cell-based; conditions: Bacteroides melaninogenicus 2736
pseudorabies = assay type: cell-based
[13] = mice

SMILES: NC1C(=O)NC2Cc3ccc(c(Cl)c3)Oc3cc4cc(c3O)Oc3ccc(cc3Cl)C(O)C3NC(=O)C(NC(=O)C4NC(=O)C(NC2=O)c2cc(O)cc(c2)Oc2cc1ccc2O)c1cc(Cl)c(O)c(c1)-c1c(O)cc(O)cc1C(C(=O)O)NC3=O (stereo not drawn) [factor A, A41030 factor A]
- in vivo oral activity (S. pyogenes): > 300 mg./kg.×2
- MIC (Clostridium perfringens): 0.5 mg/L (≈ 0.405 µM)
- possibly additional pKa's [1]: > 10.5
- MIC (Clostridium difficile [2]): 32 mg/L (≈ 25.9 µM)
- MIC (Clostridium septicum): 2 mg/L (≈ 1.62 µM)
- MIC (Bacteroides vulgatis): 32 mg/L (≈ 25.9 µM)
- MIC (Propionibacterium acnes [3]; P. acnes strain 104): 0.25 mg/L (≈ 0.203 µM)
- MIC (Propionibacterium acnes [3]; P. acnes strain 107): 0.06 mg/L (≈ 0.0486 µM)
- MIC (Propionibacterium acnes [3]; P. acnes strain 5170): ≤ 0.03 mg/L
- MIC (Propionibacterium acnes [3]; P. acnes strain 5176): ≤ 0.03 mg/L
- MIC (Propionibacterium acnes [3]; P. acnes strain 5187): ≤ 0.03 mg/L
- MIC (Propionibacterium acnes [3]; P. acnes strain 5197): ≤ 0.03 mg/L
- MIC (Propionibacterium acnes [3]; P. acnes strain 5226): 0.5 mg/L (≈ 0.405 µM)
- MIC (Propionibacterium acnes [3]; P. acnes strain 5227): ≤ 0.03 mg/L
- MIC (Propionibacterium acnes [3]; P. acnes strain 5228): 1.0 mg/L (≈ 0.811 µM)
- MIC (Propionibacterium acnes [3]; P. acnes strain 5229): 0.5 mg/L (≈ 0.405 µM)
- MIC (Propionibacterium acnes [3]; P. acnes strain 5246): 0.06 mg/L (≈ 0.0486 µM)
- MIC (Propionibacterium acnes [3]; P. acnes strain 5292): 0.06 mg/L (≈ 0.0486 µM)
- MIC [4]: 1 mg/L (≈ 0.811 µM)
- MIC (Staphylococcus aureus): 0.25 mg/L (≈ 0.203 µM)
- MIC (Bacteroides corrodens): 64 mg/L (≈ 51.9 µM)
- MIC [5]: 8 mg/L (≈ 6.49 µM)
- MIC ([6]; Streptococcus sp. Group D 9960, 24 hours): 2 mg/L (≈ 1.62 µM)
- MIC ([6]; Streptococcus sp. Group D X66, 24 hours): 1 mg/L (≈ 0.811 µM)
- MIC [7]: 1.0 mg/L (≈ 0.811 µM)
- MIC (Peptococcus prevoti): ≤ 0.25 mg/L
- MIC (Clostridium difficile [8]; Clostridium difficile 78): 1.0 mg/L (≈ 0.811 µM)
- MIC (Clostridium difficile [8]; Clostridium difficile 107B): 1.0 mg/L (≈ 0.811 µM)
- MIC (Clostridium difficile [8]; Clostridium difficile 111F): 1.0 mg/L (≈ 0.811 µM)
- MIC (Clostridium difficile [8]; Clostridium difficile 1153): 1.0 mg/L (≈ 0.811 µM)
- MIC (Clostridium difficile [8]; Clostridium difficile 2634): 1.0 mg/L (≈ 0.811 µM)
- MIC (Clostridium difficile [8]; Clostridium difficile 3424-5B): 1.0 mg/L (≈ 0.811 µM)
- MIC (Clostridium difficile [8]; Clostridium difficile 3816): 1.0 mg/L (≈ 0.811 µM)
- MIC (Clostridium difficile [8]; Clostridium difficile 3950D): 1.0 mg/L (≈ 0.811 µM)
- MIC (Clostridium difficile [8]; Clostridium difficile 6890): 1.0 mg/L (≈ 0.811 µM)
- MIC (Clostridium difficile [8]; Clostridium difficile 8484): 1.0 mg/L (≈ 0.811 µM)
- MIC (Clostridium difficile [8]; Clostridium difficile A-194): 1.0 mg/L (≈ 0.811 µM)
- MIC (Clostridium difficile [8]; Clostridium difficile A-195): 1.0 mg/L (≈ 0.811 µM)
- MIC (Clostridium difficile [8]; Clostridium difficile A-196): 1.0 mg/L (≈ 0.811 µM)
- MIC (Clostridium difficile [8]; Clostridium difficile A-279): 1.0 mg/L (≈ 0.811 µM)
- MIC (Clostridium difficile [8]; Clostridium difficile A-280): 1.0 mg/L (≈ 0.811 µM)
- MIC (Clostridium difficile [8]; Clostridium difficile A-281): 1.0 mg/L (≈ 0.811 µM)
- MIC (Clostridium difficile [8]; Clostridium difficile WAL-2112): 1.0 mg/L (≈ 0.811 µM)
- MIC (Clostridium difficile [8]; Clostridium difficile WAL-3657): 1.0 mg/L (≈ 0.811 µM)
- MIC (Clostridium difficile [8]; Clostridium difficile WAL-4268): 1.0 mg/L (≈ 0.811 µM)
- MIC (Haemophilus influenzae; Haemophilus influenzae 251, 24 hours): 2 mg/L (≈ 1.62 µM)
- MIC (Haemophilus influenzae; Haemophilus influenzae Brun, 24 hours): 8 mg/L (≈ 6.49 µM)
- MIC (Propionibacterium acnes [9]): ≤ 0.25 mg/L
- MIC [10]: ≤ 0.25 mg/L
- MIC (Fusobacterium symbiosum): 1.0 mg/L (≈ 0.811 µM)
- MIC (Bacteroides fragilis; Bacteroides fragilis 1877): 32 mg/L (≈ 25.9 µM)
- MIC (Bacteroides fragilis; Bacteroides fragilis 1936B): 64 mg/L (≈ 51.9 µM)
- MIC [11]: 64 mg/L (≈ 51.9 µM)
- MIC (Streptococcus pyogenes): 0.5 mg/L (≈ 0.405 µM)
- MIC (Streptococcus pneumoniae): 0.5 mg/L (≈ 0.405 µM)
- solubility (solvents) (Solubility in solvents): soluble in alcohol-water mixtures, in dimethylsulfoxide, in dimethylformamide, in dimethylsulfoxide-water mixtures, in dimethylformamide-water mixtures, in dilute aqueous acid, and in dilute aqueous base
- MIC [12]: 4 mg/L (≈ 3.24 µM)
- concentration at which activity in vitro was shown (pseudorabies): 20 µg/mL
- LD50 [13]: > 300 mg/kg
- acute toxicity [13]: > 300 mg/kg
